According to patent publication US20070270471A1, “Compounds Which Potentiate Glutamate Receptor and Uses Thereof in Medicine” (GLAXO GROUP LIMITED, priority 2004, published 2007):

Molecular target: T1, human GluR2 flip (unedited) AMPA receptor subunit (Homo sapiens, UniProt P42262)
T1 construct: expressed in transfected cells; host or cells: HEK 293 cells, stably expressing or transiently transfected
Assay: Calcium influx fluorescence assay (FLUO4, FLIPR)
Assay type: cell-based
Details: HEK 293 cells expressing human GluR2 flip (unedited); potentiation of response to 100 μM glutamate; peak fluorescence
Description: The ability of the compounds of the invention to potentiate glutamate receptor-mediated response were determined a) by using fluorescent calcium-indicator dyes such as FLUO4 and additionally for some compounds, b) by measuring glutamate-evoked current recorded from human GluR2 flip unedited HEK293 cells.
a) Calcium Influx Fluorescence Assay
384 well plates were prepared containing confluent monolayer of HEK 293 cells either stably expressing or transiently transfected with human GluR2 flip (unedited) AMPA receptor subunit. These cells form functional homotetrameric AMPA receptors. […]
The cell plate was then transferred into a fluorescence imaging plate based reader [such as the FLIPR384 (Molecular Devices)]. A baseline fluorescence reading was taken over a 10 to 240 second period, and then 10 μL from each plate containing a compound of the invention made up in standard buffer solution (in a concentration range from 100 μM to 10 μM) was added (to give a final concentration in the range 30 μM to 3 μM). The fluorescence was read over 5 minute period. […] The fluorescence was then read over a 4 minute period. The activities of the compounds of the invention and reference compounds were determined by measuring peak fluorescence after the last addition. The activity was also expressed relative to the fluorescence increase induced by cyclothiazide at their maximum response (i.e. greater than 30 μM).

T1 sequence (P42262 25-883 isoform P42262-2 limits assumed): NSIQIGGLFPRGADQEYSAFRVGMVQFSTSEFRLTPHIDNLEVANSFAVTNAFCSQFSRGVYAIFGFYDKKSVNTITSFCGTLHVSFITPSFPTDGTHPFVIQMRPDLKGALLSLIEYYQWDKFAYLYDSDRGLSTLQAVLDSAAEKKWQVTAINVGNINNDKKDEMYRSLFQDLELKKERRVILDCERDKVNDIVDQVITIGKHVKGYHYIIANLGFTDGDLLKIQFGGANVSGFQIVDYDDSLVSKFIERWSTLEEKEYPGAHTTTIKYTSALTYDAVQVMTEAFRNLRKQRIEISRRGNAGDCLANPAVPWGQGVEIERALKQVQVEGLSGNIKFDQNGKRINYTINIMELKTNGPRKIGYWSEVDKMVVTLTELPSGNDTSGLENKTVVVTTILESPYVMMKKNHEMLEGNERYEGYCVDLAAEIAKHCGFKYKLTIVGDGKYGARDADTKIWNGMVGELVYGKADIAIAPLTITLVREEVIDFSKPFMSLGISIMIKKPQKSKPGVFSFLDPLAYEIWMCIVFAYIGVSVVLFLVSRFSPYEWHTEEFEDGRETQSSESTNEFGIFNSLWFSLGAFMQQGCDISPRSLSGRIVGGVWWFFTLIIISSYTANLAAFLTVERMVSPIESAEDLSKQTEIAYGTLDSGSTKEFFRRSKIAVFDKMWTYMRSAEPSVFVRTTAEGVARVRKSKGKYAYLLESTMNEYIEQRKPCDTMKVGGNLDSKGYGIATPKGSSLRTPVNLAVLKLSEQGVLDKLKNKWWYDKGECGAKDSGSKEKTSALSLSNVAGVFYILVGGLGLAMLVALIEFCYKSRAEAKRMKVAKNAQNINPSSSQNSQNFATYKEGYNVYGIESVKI

## CC(C)S(=O)(=O)N[C@@H]1CN(C)C[C@H]1c1ccc(-c2cccc(N(C)S(C)(=O)=O)c2)cc1 (relative stereo) [Example 19, N-(trans-1-methyl-4-{3′-[methyl(methylsulfonyl)amino]-4-biphenylyl}-3-pyrrolidinyl)-2-propanesulfonamide]
  EC50: 1580 nM
